Measured values published in ChEMBL document CHEMBL4364276, “Discovery of 4-phenyl-2H-benzo[b][1,4]oxazin-3(4H)-one derivatives as potent and orally active PI3K/mTOR dual inhibitors” (Eur J Med Chem, 2019).

Columns and labels:
[1] = Toxicity in BALB/c mouse xenografted with human HeLa cells assessed as reduction in body weight at 20 to 50 mg/kg, ig administered for 30 days; format: organism-based; details: in vivo, po, 720 h
[2] = Toxicity in BALB/c mouse xenografted with human A549 cells assessed as reduction in body weight at 20 to 40 mg/kg, ig administered for 30 days; format: organism-based; details: in vivo, po, 720 h
[3] = target: RAC-beta serine/threonine-protein kinase (Homo sapiens) (UniProt P31751); assay: Inhibition of human AKT2 at 100 nM using KGSGSGRPRTSSFAEG as substrate by [gamma-33P]-ATP assay
[4] = target: Tyrosine-protein kinase receptor UFO (Homo sapiens) (UniProt P30530); assay: Inhibition of human AXL at 100 nM using EAIYAAPFAKKK as substrate by [gamma-33P]-ATP assay
[5] = target: CDK2/Cyclin-E2 (Homo sapiens) (UniProt P24941+O96020); assay: Inhibition of human CDK2/cyclin-E2 at 100 nM using histone H1 as substrate by [gamma-33P]-ATP assay; format: protein-complex assay
[6] = target: CDK3/Cyclin E (Homo sapiens) (UniProt P24864+Q00526); assay: Inhibition of human CDK3/cyclin-E at 100 nM using histone H1 as substrate by [gamma-33P]-ATP assay; format: protein-complex assay
[7] = target: CDK6/cyclin D3 (Homo sapiens) (UniProt P30281+Q00534); assay: Inhibition of human CDK6/cyclin-D3 at 100 nM using RB protein as substrate by [gamma-33P]-ATP assay; format: protein-complex assay
[8] = target: CDK9/Cyclin-T2 (Homo sapiens) (UniProt P50750+O60583); assay: Inhibition of human CDK9/cyclin-T2 at 100 nM using KTFCGTPEYLAPEVRREPRILSEEEQEMFRDFDYIADWC as substrate by [gamma-33P]-ATP assay; format: protein-complex assay
[9] = target: Dual specificity protein kinase CLK2 (Homo sapiens) (UniProt P49760); assay: Inhibition of human CLK2 at 100 nM using MBP as substrate by [gamma-33P]-ATP assay
[10] = target: Epidermal growth factor receptor (Homo sapiens) (UniProt P00533); assay: Inhibition of human EGFR at 100 nM using poly[Glu:Tyr] (4:1) as substrate by [gamma-33P]-ATP assay
[11] = target: Ephrin type-A receptor 4 (Homo sapiens) (UniProt P54764); assay: Inhibition of human EPHA4 at 100 nM using poly[Glu:Tyr] (4:1) as substrate by [gamma-33P]-ATP assay
[12] = target: Ephrin type-B receptor 3 (Homo sapiens) (UniProt P54753); assay: Inhibition of human EPHB3 at 100 nM using poly[Glu:Tyr] (4:1) as substrate by [gamma-33P]-ATP assay
[13] = target: Mitogen-activated protein kinase 3 (Homo sapiens) (UniProt P27361); assay: Inhibition of human ERK1 at 100 nM using MBP as substrate by [gamma-33P]-ATP assay
[14] = target: Receptor-type tyrosine-protein kinase FLT3 (Homo sapiens) (UniProt P36888); assay: Inhibition of human FLT3 at 100 nM using EAIYAAPFAKKK as substrate by [gamma-33P]-ATP assay
[15] = target: G protein-coupled receptor kinase 5 (Homo sapiens) (UniProt P34947); assay: Inhibition of human GRK5 at 100 nM using casein as substrate by [gamma-33P]-ATP assay
[16] = target: Inhibitor of nuclear factor kappa-B kinase subunit beta (Homo sapiens) (UniProt O14920); assay: Inhibition of human IKKbeta at 100 nM using KKKKERLLDDRHDSGLDSMKDEE as substrate by [gamma-33P]-ATP assay
[17] = target: Mitogen-activated protein kinase 9 (Homo sapiens) (UniProt P45984); assay: Inhibition of human JNK2 at 100 nM using ATF2 as substrate by [gamma-33P]-ATP assay
[18] = target: Dual specificity mitogen-activated protein kinase kinase 7 (Homo sapiens) (UniProt O14733); assay: Inhibition of human MKK7 at 100 nM using JNK as substrate by [gamma-33P]-ATP assay
[19] = target: Serine/threonine-protein kinase 24 (Homo sapiens) (UniProt Q9Y6E0); assay: Inhibition of human MST3 at 100 nM using MBP as substrate by [gamma-33P]-ATP assay
[20] = target: Serine/threonine-protein kinase Nek6 (Homo sapiens) (UniProt Q9HC98); assay: Inhibition of human NEK6 at 100 nM using casein as substrate by [gamma-33P]-ATP assay
[21] = target: Ribosomal protein S6 kinase beta-1 (Homo sapiens) (UniProt P23443); assay: Inhibition of human p70S6K at 100 nM using KKRNRTLTK as substrate by [gamma-33P]-ATP assay
[22] = target: Inactive tyrosine-protein kinase PEAK1 (Homo sapiens) (UniProt Q9H792); assay: Inhibition of human PEAK1 at 100 nM using MBP as substrate by [gamma-33P]-ATP assay
[23] = target: Serine/threonine-protein kinase pim-3 (Homo sapiens) (UniProt Q86V86); assay: Inhibition of human PIM3 at 100 nM using RSRHSSYPAGT as substrate by [gamma-33P]-ATP assay
[24] = target: Serine/threonine-protein kinase D2 (Homo sapiens) (UniProt Q9BZL6); assay: Inhibition of human PKD2 at 100 nM using KKLNRTLSVA as substrate by [gamma-33P]-ATP assay
[25] = target: Macrophage-stimulating protein receptor (Homo sapiens) (UniProt Q04912); assay: Inhibition of human RON at 100 nM using KKSRGDYMTMQIG as substrate by [gamma-33P]-ATP assay
[26] = target: Ribosomal protein S6 kinase alpha-3 (Homo sapiens) (UniProt P51812); assay: Inhibition of human RSK2 at 100 nM using KKLNRTLSVA as substrate by [gamma-33P]-ATP assay
[27] = target: SRSF protein kinase 1 (Homo sapiens) (UniProt Q96SB4); assay: Inhibition of human SRPK1 at 100 nM using GRSRSRSRSR as substrate by [gamma-33P]-ATP assay
[28] = target: Serine/threonine-protein kinase TAO2 (Homo sapiens) (UniProt Q9UL54); assay: Inhibition of human TAOK2 at 100 nM using MBP as substrate by [gamma-33P]-ATP assay
[29] = target: Tyrosine-protein kinase receptor TYRO3 (Homo sapiens) (UniProt Q06418); assay: Inhibition of human TYRO3 at 100 nM using poly[Glu:Tyr] (4:1) as substrate by [gamma-33P]-ATP assay
Tyrosine-protein kinase receptor TYRO3 (Homo sapiens), sequence (Q06418 whole entry): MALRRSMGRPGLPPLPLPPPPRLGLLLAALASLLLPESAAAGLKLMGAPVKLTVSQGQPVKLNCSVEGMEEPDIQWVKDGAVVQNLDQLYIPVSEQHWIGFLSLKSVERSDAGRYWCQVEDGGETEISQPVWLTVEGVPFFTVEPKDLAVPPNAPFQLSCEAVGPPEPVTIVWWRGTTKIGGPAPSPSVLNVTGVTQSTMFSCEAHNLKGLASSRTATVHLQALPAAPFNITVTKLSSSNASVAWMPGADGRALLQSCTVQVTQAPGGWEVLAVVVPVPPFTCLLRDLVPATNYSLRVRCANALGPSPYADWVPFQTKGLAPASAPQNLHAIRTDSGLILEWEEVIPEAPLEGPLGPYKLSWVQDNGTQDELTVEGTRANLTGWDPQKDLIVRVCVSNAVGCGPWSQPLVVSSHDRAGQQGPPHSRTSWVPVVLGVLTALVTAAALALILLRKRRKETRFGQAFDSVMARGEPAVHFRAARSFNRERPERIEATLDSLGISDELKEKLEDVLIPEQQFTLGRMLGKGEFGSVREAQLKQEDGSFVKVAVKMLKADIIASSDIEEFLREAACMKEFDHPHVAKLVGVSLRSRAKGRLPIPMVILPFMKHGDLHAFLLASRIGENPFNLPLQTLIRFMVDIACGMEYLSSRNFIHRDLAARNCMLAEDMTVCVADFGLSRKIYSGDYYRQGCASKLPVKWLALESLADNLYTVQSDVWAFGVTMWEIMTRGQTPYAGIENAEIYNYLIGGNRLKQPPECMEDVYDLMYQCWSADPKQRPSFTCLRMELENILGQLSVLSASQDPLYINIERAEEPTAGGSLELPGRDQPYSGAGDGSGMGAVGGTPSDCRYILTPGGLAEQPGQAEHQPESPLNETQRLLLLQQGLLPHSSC

Serine/threonine-protein kinase D2 (Homo sapiens), sequence (Q9BZL6 whole entry): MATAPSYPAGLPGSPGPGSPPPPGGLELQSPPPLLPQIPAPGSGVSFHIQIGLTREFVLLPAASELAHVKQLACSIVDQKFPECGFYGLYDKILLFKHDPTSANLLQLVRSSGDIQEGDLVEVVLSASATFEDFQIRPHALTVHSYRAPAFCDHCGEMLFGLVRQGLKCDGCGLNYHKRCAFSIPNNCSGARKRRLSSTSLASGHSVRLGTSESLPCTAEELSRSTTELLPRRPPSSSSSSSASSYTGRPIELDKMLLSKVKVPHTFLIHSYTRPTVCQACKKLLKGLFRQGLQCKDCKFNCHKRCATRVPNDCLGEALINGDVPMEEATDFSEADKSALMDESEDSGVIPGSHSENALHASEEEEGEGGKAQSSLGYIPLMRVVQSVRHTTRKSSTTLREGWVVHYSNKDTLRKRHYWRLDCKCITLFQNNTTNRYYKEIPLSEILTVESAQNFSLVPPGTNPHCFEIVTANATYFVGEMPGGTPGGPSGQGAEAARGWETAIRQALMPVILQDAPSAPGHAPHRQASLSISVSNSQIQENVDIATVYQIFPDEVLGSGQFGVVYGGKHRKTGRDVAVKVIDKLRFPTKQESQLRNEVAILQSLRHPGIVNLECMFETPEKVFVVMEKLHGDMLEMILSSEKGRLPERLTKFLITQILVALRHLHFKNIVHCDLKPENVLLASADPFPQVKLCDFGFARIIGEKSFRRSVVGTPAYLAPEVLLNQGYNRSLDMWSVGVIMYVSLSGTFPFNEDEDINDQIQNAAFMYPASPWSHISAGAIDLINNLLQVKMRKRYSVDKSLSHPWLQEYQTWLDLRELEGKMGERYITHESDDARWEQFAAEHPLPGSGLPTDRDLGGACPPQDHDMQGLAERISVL
Epidermal growth factor receptor (Homo sapiens), sequence (P00533 whole entry): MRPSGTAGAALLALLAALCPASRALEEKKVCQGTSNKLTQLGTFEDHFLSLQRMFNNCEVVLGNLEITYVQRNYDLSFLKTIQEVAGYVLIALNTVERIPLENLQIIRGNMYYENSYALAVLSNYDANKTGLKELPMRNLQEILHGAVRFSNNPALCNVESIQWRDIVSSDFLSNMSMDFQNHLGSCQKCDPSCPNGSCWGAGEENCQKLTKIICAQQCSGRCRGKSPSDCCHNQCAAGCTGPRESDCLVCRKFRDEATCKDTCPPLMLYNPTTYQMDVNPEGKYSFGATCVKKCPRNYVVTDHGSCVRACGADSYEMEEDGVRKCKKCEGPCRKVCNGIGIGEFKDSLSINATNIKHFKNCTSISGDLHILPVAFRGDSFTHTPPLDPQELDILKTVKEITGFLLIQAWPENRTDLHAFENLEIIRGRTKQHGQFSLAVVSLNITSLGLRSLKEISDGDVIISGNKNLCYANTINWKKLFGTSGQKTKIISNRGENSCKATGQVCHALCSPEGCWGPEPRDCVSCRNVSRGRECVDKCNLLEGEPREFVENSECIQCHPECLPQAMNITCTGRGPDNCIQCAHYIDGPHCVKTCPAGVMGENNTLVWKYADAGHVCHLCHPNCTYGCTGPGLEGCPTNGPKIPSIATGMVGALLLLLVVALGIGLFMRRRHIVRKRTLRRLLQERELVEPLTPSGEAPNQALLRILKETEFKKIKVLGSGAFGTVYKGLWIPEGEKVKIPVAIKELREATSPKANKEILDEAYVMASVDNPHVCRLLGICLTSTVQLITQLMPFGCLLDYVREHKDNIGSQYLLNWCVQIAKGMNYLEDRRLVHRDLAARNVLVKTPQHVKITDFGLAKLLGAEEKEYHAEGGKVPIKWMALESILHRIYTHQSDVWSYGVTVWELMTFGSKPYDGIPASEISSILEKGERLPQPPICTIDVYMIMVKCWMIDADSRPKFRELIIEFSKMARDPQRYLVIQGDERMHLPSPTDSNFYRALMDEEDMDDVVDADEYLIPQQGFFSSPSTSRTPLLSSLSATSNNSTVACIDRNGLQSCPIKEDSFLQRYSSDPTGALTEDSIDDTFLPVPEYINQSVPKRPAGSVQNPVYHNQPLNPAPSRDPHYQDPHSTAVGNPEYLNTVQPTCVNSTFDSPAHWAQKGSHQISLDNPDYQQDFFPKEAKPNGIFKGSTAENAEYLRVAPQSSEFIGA
Dual specificity mitogen-activated protein kinase kinase 7 (Homo sapiens), sequence (O14733 whole entry): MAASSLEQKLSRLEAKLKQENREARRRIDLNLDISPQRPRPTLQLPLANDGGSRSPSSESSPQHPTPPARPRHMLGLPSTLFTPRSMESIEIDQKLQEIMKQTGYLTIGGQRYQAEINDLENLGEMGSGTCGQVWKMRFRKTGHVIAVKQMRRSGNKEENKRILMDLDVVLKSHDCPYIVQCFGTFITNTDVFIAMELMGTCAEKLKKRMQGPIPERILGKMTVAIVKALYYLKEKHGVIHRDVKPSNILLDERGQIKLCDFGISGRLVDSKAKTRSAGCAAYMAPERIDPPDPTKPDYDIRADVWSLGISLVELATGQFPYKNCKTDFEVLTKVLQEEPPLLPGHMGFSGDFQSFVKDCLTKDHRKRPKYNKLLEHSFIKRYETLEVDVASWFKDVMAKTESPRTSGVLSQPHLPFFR
Dual specificity protein kinase CLK2 (Homo sapiens), sequence (P49760 whole entry, looked up): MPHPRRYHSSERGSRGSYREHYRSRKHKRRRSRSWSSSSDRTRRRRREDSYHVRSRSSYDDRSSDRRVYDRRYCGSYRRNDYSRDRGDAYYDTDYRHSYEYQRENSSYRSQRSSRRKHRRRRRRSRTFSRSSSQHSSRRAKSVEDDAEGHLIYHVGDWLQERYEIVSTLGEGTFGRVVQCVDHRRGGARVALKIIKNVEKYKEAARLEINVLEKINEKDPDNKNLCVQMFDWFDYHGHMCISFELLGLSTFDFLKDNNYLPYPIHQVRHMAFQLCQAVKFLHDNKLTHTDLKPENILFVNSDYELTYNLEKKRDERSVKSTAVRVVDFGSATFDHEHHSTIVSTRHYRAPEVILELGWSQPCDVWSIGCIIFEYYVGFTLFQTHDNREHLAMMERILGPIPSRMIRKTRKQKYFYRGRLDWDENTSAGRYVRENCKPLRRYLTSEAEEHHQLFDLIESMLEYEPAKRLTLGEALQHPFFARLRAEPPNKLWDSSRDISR
Mitogen-activated protein kinase 9 (Homo sapiens), sequence (P45984 whole entry, looked up): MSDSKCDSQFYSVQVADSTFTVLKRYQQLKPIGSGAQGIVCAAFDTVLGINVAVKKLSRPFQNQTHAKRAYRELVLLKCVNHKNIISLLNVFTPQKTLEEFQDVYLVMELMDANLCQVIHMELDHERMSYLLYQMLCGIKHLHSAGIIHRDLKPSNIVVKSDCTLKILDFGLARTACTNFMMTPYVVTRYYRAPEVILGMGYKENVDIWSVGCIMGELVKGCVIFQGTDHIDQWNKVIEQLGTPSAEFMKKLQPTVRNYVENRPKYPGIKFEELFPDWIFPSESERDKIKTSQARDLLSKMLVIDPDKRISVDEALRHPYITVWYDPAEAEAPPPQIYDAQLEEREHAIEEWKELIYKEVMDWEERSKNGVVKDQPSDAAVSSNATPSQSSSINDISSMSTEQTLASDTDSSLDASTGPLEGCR
Mitogen-activated protein kinase 3 (Homo sapiens), sequence (P27361 whole entry): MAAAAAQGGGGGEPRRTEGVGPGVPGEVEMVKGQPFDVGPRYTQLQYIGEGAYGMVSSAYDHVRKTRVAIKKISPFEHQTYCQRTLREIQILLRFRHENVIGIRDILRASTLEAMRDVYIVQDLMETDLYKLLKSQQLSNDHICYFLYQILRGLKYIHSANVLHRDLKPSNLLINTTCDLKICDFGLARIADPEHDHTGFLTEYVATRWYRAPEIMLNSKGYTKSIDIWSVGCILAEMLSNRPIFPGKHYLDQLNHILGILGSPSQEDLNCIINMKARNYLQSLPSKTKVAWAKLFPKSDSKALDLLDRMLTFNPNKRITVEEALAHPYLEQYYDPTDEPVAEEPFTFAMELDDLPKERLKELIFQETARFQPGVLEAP

Which Activity [1] does the source give for `COc1ccc(N2C(=O)COc3ccc(-c4cnc(OC)c(NS(=O)(=O)c5ccc(F)cc5)c4)cc32)cc1` here?
Its Activity is “Non-Toxic”.

What about the Activity [2] of the same compound?
The Activity was “Non-Toxic”.

And the inhibition [3]?
The inhibition was 28.1%.

What about the inhibition [4] of the same compound?
The inhibition was 25.4%.

What about the inhibition [5] of the same compound?
Its inhibition is -7.8%.

And the inhibition [6]?
Its inhibition is 2.71%.

What about the inhibition [7] of the same compound?
The inhibition was 3.81%.

What about the inhibition [8] of the same compound?
Its inhibition is 31.9%.

And the inhibition [9]?
The inhibition was 10.2%.

What about the inhibition [10] of the same compound?
The inhibition was 8.4%.

What about the inhibition [11] of the same compound?
The inhibition was 6.1%.

And the inhibition [12]?
Its inhibition is -1.65%.

What about the inhibition [13] of the same compound?
The inhibition was 12.7%.

And the inhibition [14]?
The inhibition was 16.6%.

And the inhibition [15]?
Its inhibition is -0.54%.

What about the inhibition [16] of the same compound?
Its inhibition is 14.5%.

What about the inhibition [17] of the same compound?
Its inhibition is 22.4%.

What about the inhibition [18] of the same compound?
Its inhibition is -2.26%.

What about the inhibition [19] of the same compound?
Its inhibition is 10.6%.

And the inhibition [20]?
Its inhibition is -2.82%.

What about the inhibition [21] of the same compound?
Its inhibition is 0.03%.

What about the inhibition [22] of the same compound?
Its inhibition is 4.84%.

And the inhibition [23]?
The inhibition was -9.8%.

And the inhibition [24]?
The inhibition was -3.61%.

What about the inhibition [25] of the same compound?
Its inhibition is -0.5%.

And the inhibition [26]?
The inhibition was 19.6%.

What about the inhibition [27] of the same compound?
Its inhibition is 1.44%.

And the inhibition [28]?
The inhibition was -3.9%.

And the inhibition [29]?
The inhibition was 3.03%.
